This note sets out measurements from ChEMBL document CHEMBL5360534, “Synthetic α-glucosidase inhibitors as promising anti-diabetic agents: Recent developments and future challenges” (Eur J Med Chem, 2023).

For one assay, the target named is T1, Alpha-glucosidase (Saccharomyces cerevisiae S288c, UniProt P53341+P38158+P07265). The experiment in a line: Inhibition of Saccharomyces cerevisiae alpha-glucosidase using pNPG as substrate preincubated for 10 mins followed by substrate addition and measured after 20 mins by spectrophotometric analysis. It is filed as protein assay.
Regarding `Fc1ccc(C2=NOC(c3ccccc3)N2c2ccc(F)cc2)cc1` (configuration not stated), the IC50 turned out to be 256 µM.
Take `Cc1ccc(C(c2c(N)c3ccccc3oc2=O)c2c(N)c3ccccc3oc2=O)cc1`: the IC50 worked out at 20 µM.
The compound `O=C(CSC(=S)Nc1cccc([N+](=O)[O-])c1)c1cc2ccccc2oc1=O` registered an IC50 of 85 µM.
As to `O=C(COc1ccc(-c2nc(-c3ccccc3)c(-c3ccccc3)[nH]2)cc1)Nc1cccc(Br)c1`, the IC50 worked out at 90 µM.
The same measure, in the same setting: the value for `COc1ccc(C2=NOC(c3ccccc3)N2c2ccc(OC)cc2)cc1` (configuration not stated) was 295 µM; that for `O=C1Cc2ccccc2C(O)C1C(c1ccc(OCc2cn(Cc3ccccc3Cl)nn2)cc1)c1c(O)c2ccccc2oc1=O` (configuration not stated) was 13 µM; that for `Cc1ccccc1Cn1cc(COc2ccc(C(c3c(O)c4ccccc4oc3=O)C3C(=O)Cc4ccccc4C3O)cc2)nn1` (configuration not stated) was 16.4 µM.

A further assay concerns the target T1, Alpha-glucosidase. The experiment in a line: Inhibition of Saccharomyces cerevisiae alpha-glucosidase. In kind it is protein assay.
With `O=C(N/N=C\c1ccccc1OCCCN1C(=O)c2ccccc2C1=O)c1cc2ccccc2oc1=O`, the IC50 amounted to 85.2 µM.
For the compound `O=C(COc1ccc2ccc(=O)oc2c1)N/N=C\c1cc([N+](=O)[O-])ccc1OCCCN1C(=O)c2ccccc2C1=O`, the IC50 stood at 94.2 µM.
For `Clc1ccc(/C=N/Nc2nnc(-c3ccccc3)c(-c3ccccc3)n2)cc1`, the IC50 came to 13.09 µM. This IC50 is about 7.2-fold lower than that of the compound before.
Turning to `Cc1cc2nc(NC(=O)CN3C(=O)S/C(=C\c4ccc(Cl)cc4)C3=O)sc2cc1C`, the IC50 amounted to 29.91 µM. Compared with the last compound, the IC50 is about 2.3-fold higher.

Another assay concerns the target T1, Alpha-glucosidase. The experiment in a line: Competitive inhibition of Saccharomyces cerevisiae alpha-glucosidase using pNPG as substrate assessed as inhibition constant preincubated for 15 mins followed by substrate addition and measured after 20 mins by spectrophotometric analysis. It is filed as protein assay.
Take `Cc1ccc(C(c2c(N)c3ccccc3oc2=O)c2c(N)c3ccccc3oc2=O)cc1`: the Ki stood at 22.4 µM.
For the compound `O=C(COc1ccc(-c2nc(-c3ccccc3)c(-c3ccccc3)[nH]2)cc1)Nc1cccc(Br)c1`, the Ki amounted to 86.3 µM.
For `O=C(Cn1c(-c2ccc(Cl)cc2)nc2ccccc2c1=O)N/N=C/c1cn(-c2ccccc2)nc1-c1ccc(Br)cc1`, the Ki is 56 µM.
Take `Cc1ccc(-n2cc(/C=N/NC(=O)Nc3ccccc3)c(-c3ccc([N+](=O)[O-])cc3)n2)cc1`: the Ki came to 87 µM.
With `Cc1ccc(-c2nc3c(C(=O)Nc4ccccc4)c(Nc4ccccc4)nn3c(-c3ccc(Br)cc3)c2N)cc1`, the Ki came out at 12 µM.

For another assay, the target named is T1, Alpha-glucosidase. The experiment in a line: Inhibition of Saccharomyces cerevisiae alpha-glucosidase using p-nitrophenyl-alpha-D-glucopyranoside as substrate preincubated for 5 mins followed by alpha-glucosidase addition and measured after 15 mins by UV-visible spectrophotometric analysis. It is filed as protein assay.
Turning to `O=C(c1ccccc1)c1ccc2nc(-c3ccc(O)cc3)[nH]c2c1`, the IC50 worked out at 11.02 µM.
Still for that read-out and setting: the value for `O=C(NNS(=O)(=O)c1cccc(F)c1)c1cc2cc(F)ccc2[nH]1` was 3.2 µM; that for `O=C(NNS(=O)(=O)c1ccccc1F)c1cc2cc(F)ccc2[nH]1` was 3.2 µM; that for `N#Cc1ccc(S(=O)(=O)NNC(=O)c2cc3cc(F)ccc3[nH]2)cc1` was 6.2 µM.
For the compound `O=C(NNS(=O)(=O)c1ccc(Br)cc1)c1cc2cc(F)ccc2[nH]1`, the IC50 was found to be 4.7 µM. This IC50 and that of the compound before are within 1.5-fold of each other.
`O=C(NNS(=O)(=O)c1cccc(Cl)c1)c1cc2cc(F)ccc2[nH]1` returned an IC50 of 7.4 µM.

Another assay concerns the target T1, Alpha-glucosidase. The experiment in a line: Inhibition of Saccharomyces cerevisiae alpha-glucosidase using p-nitrophenyl-alpha-D-glucopyranoside as substrate preincubated for 15 mins followed by substrate addition and measured after 30 mins by spectrophotometric analysis. It is filed as protein assay.
`CC(C)(C)c1ccc(Cn2cc(CCS3=Nc4cc(Cl)ccc4C3)nn2)cc1` (configuration not stated) gave an IC50 of 20.7 µM. That is a double-digit micromolar value.
Take `O=C1Nc2ccccc2C1(c1cn(Cc2ccccc2F)c2ccccc12)c1cn(Cc2ccccc2F)c2ccccc12`: the IC50 came to 5.98 µM. This IC50 lies about 3.5-fold lower than the previous one.
`Cc1ccc(-c2cc(-c3ccc(Br)cc3)nc(SCc3ccc(Cl)cc3)n2)cc1` showed an IC50 of 19.6 µM. This IC50 is about 3.3-fold higher than that of the compound before.
Still for that read-out and setting: the value for `COc1ccc(-c2csc(NC(=O)CSc3nnc(-c4ccc(Br)cc4)c(-c4ccc(Br)cc4)n3)n2)cc1` was 2.85 µM; that for `CC(=O)CC(c1ccc(Br)cc1)C(C(=O)Nc1ccccn1)C(=O)Nc1ccccn1` (configuration not stated) was 12.8 µM.

A further assay has as its target T1, Alpha-glucosidase. The experiment in a line: Inhibition of Saccharomyces cerevisiae alpha-glucosidase using p-nitrophenyl glucopyranoside as substrate preincubated for 10 mins followed by substrate addition and measured after 20 mins by spectrophotometric analysis. In kind it is protein assay.
In the case of `O=C(Cn1cc(COc2ccc(-c3nc4ccccc4c(=O)[nH]3)cc2)nn1)Nc1ccccc1`, the IC50 came to 45.3 µM.
The same measure, in the same setting: to `O=C(Cn1c(-c2ccc(Cl)cc2)nc2ccccc2c1=O)N/N=C/c1cn(-c2ccccc2)nc1-c1ccc(Br)cc1` belongs 60.5 µM; to `Cc1ccc(-n2cc(/C=N/NC(=O)Nc3ccccc3)c(-c3ccc([N+](=O)[O-])cc3)n2)cc1`, 65.1 µM.
In the case of `COc1ccc(CCn2c(SCc3cn(Cc4ccc(Br)cc4)nn3)nc3ccccc3c2=O)cc1OC`, the IC50 is 192.3 µM.
Take `Cc1ccc(-c2nc3c(C(=O)Nc4ccccc4)c(Nc4ccccc4)nn3c(-c3ccc(Br)cc3)c2N)cc1`: the IC50 stood at 15.2 µM.

Target in another assay: not listed separately
The experiment in a line: Inhibition of Saccharomyces cerevisiae alpha-glucosidase type I using p-nitrophenyl-alpha-D-glucopyranoside as substrate preincubated for 10 mins followed by substrate addition and measured after 30 mins by spectrophotometric analysis.
Take `CCn1c(=O)c2ccccc2n2ncnc12`: half-maximal inhibition (IC50) was put at 28.5 µM.
Still for that read-out and setting: the value for `CS(=O)(=O)n1c(=O)c2ccccc2n2ncnc12` was 83.9 µM; that for `O=c1c2ccccc2n2ncnc2n1OCc1ccccc1` was 12.7 µM; that for `CSn1c(=O)c2ccccc2n2ncnc12` was 72.3 µM.
`C/C=C/n1c(=O)c2ccccc2n2ncnc12` registered an IC50 of 45.6 µM.
